Test results reported in patent publication US11014961B2, “Self-labeling miniproteins and conjugates comprising them” (priority 2017, dated 2021).
No end group written: not given here.

Key:
Type in all cases: biochemical
[1] = Labeling conversion of MP with the modified capture agent (LC-MS TIC); details: 0.5 mM mCA, 0.1 mM MP, 5 mM TCEP, 1× selection buffer, pH 7.4
Method: A solution consisting of 5 mM carboxy-(PEG)12-thiol, 500 mM pentafluorophenyl sulfide, 20 mM triphenylphosphine and 230 mM DIEA in acetonitrile was vortexed and left at room temperature for 4 hours. The reaction was then diluted with 10.6× volume of 95% A: 5% B, solid phase extracted and lyophilized. The resulting material was analyzed by LCMS (method 2). This product will later be referred to as mCA (modified CA).
All 10 putative self-labeling MPs were chemically synthesized (MP01 and MP02 were additionally made with the full C-terminal constant region). To determine the importance of the C-terminal tag, a kinetic analysis on MP01 was conducted comparing the sequence with and without the tag. […] The remainder of the MPs all reacted with varying second order rate constants and to differing product distributions from multiple cysteine labeling sites (Table 3). […] Of the sequences containing multiple cysteines, all reacted to differing extents. […] On the other hand, MP08 (SEQ ID NO: 53) reacted sluggishly (0.04 μM^−1 s^−1) to produce singly and doubly labeled species. The sole sequence containing three cysteines, MP05 (SEQ ID NO: 44), yielded a mixture of labeled species within an 8-hour reaction—primarily existing with either 2 or 3 labels with a rapid initial labeling process (0.93±0.11 μM^−1 s^−1). […]

[2] = Second order rate constant of the reaction between miniprotein (MP) and capture agent (CA), LC-MS TIC peak integration; details: for Second order rate constant: 0.1 mM MP, 0.5 mM CA
[3] = Labeling conversion of MP with the selection capture agent (LC-MS TIC); details: 0.5 mM CA, 0.1 mM MP, 5 mM TCEP, 1× selection buffer, pH 7.4
Method: All 10 putative self-labeling MPs were chemically synthesized (MP01 and MP02 were additionally made with the full C-terminal constant region). To determine the importance of the C-terminal tag, a kinetic analysis on MP01 was conducted comparing the sequence with and without the tag. […] The remainder of the MPs all reacted with varying second order rate constants and to differing product distributions from multiple cysteine labeling sites (Table 3). […] Of the sequences containing multiple cysteines, all reacted to differing extents. […] On the other hand, MP08 (SEQ ID NO: 53) reacted sluggishly (0.04 μM^−1 s^−1) to produce singly and doubly labeled species. The sole sequence containing three cysteines, MP05 (SEQ ID NO: 44), yielded a mixture of labeled species within an 8-hour reaction—primarily existing with either 2 or 3 labels with a rapid initial labeling process (0.93±0.11 μM^−1 s^−1). Finally, MP01, 07 and 10 (SEQ ID NOs: 13, 52, and 59, respectively) were probed via proteolytic digest-LC-MS/MS analysis, this confirmed that the cysteines were labeled and not an alternative amino acid. […] Conditions used were 0.5 mM CA, 0.1 mM MP, 5 mM TCEP, 1× selection buffer, pH 7.4.

Substance: MHQKYKMTKDCFFSFLAHHKKRKLYPMSG-NH2 [MP01]
- conversion with modified CA (mCA) [1]: 91%
- Second order rate constant ([2]; 5 mM TCEP, 1× selection buffer pH 7.4, RT): 0.34 M⁻¹ s⁻¹
- Second order rate constant ([2]; 5 mM TCEP, 1× selection buffer pH 7.4, RT, a: average of three MP concentrations, c: labeled 1-3 times, d: labeled 1-2 times): 0.34 ± 0.06^a/ M^−1 s^−1
- second order rate constant, second MP01 construct ([2]; MP01 construct with C-terminal tag (per Table 3 footnote b), standard conditions): 0.28 M⁻¹ s⁻¹
- Second order rate constant ([2]; footnote b: construct with the full length C-terminal region (-SGSLGHHHHHHRL)): 0.28 ± 0.02^b M^−1 s^−1
- conversion with selection CA [3]: 83%
